Legend:
[1] = test system: Tc17 cells (CD8+ T cells); assay: Murine Tc17 differentiation, flow cytometry; assay type: cell-based, mouse; settings: Tc17, intracellular staining, same concentration
Protocol: CD4^+ CD25^−CD62L^high cells were purified from C57BL/6 splenocytes using an EasySep Mouse Naïve CD4^+ T cell isolation kit from STEMCELL Technologies (Vancouver, Canada), and they were differentiated into Th17 cells (TGF-β, 2 ng/ml; IL-6, 20 ng/ml; Anti-IFN-γ, 10 μg/ml; Anti-IL-4, 10 μg/ml, BioLegend, San Diego, CA) in the presence of plate-bound anti-CD3 (5 μg/ml, BioLegend, San Diego, CA) and anti-CD28 (2 μg/ml, BioLegend, San Diego, CA). The cells were harvested and processed for cytokine analysis at the RNA or protein level using real-time qPCR, flow cytometry, and ELISA on day five. Alternatively, splenocytes from OT-I mice were activated using OVA-derived peptides SIINFEKL (50 ng/ml, Sangon Biotech, Shanghai, China) and polarized to Tc17 cells using cytokine TGF-β (2 ng/ml, BioLegend, San Diego, CA) and IL-6 (20 ng/ml, BioLegend, San Diego, CA) for four or five days.
Cells were stained with fluorochrome-labeled anti-mouse Ab such as CD45, CD3, CD4, CD8, Foxp3, IFN-γ, IL-17A, CD11b, CD11c, pAKT, pSTAT3, CCR6, or MHCII. […] Cells were acquired using the FACS Aria II machine and analyzed using FlowJo software.

[2] = target: T1, RORβ (Homo sapiens, UniProt Q92753); assay: RORβ Gal4 reporter gene assay; assay type: cell-based
T1 construct: expressed in transfected cells
T1 sequence (Q92753 1-470): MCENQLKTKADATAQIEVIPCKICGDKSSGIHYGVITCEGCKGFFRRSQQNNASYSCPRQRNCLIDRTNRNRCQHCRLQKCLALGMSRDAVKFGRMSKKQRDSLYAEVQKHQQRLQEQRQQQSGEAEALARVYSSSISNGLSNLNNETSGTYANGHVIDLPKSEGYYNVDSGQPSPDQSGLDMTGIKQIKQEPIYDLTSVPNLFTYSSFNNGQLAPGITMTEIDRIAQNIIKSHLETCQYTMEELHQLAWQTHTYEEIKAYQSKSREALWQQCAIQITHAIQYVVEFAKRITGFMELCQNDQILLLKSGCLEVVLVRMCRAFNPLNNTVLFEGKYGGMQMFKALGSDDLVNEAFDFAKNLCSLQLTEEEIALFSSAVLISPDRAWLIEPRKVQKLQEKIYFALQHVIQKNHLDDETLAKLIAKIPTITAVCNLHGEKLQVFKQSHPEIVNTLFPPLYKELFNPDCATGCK
Protocol: The hRORγt LBD coding sequence was inserted into a pBIND expression vector (Promega, E1581) to express the ROR-GAL4 binding domain chimeric receptors. This expression vector and a reporter vector (pGL4.35, which carries a stably integrated GAL4 promoter-driven luciferase reporter gene [luc2P/9XGAL4 UAS/Hygro]) were co-transfected into the HEK293T host cells. The assay was performed according to a previous study. EC50 of the sigmoidal fits were analyzed using Prism 5 and a four-parameter logistic fit equation, Y = bottom + (top–bottom) / (1 + 10(logEC50 − X) × hill slope). "X" is the log of compound concentration, and "Y" is the response, which increases as X increases. Y starts at "bottom" and goes to "top" with a sigmoid shape.
Supplementary file 13046_2022_2289_MOESM2_ESM.pdf: Additional file 2: Fig. S2. Selectivity of RORγt agonists in vitro. […] Lymphoma EL4 cells were treated with various concentrations of 8-074 for 48 hours and analyzed by flow cytometry after Annexin V-FITC/PI staining. […] (h) The relative mRNA expression of Cd19 in B cells as determined by qPCR. […] (i) Relative mRNA expression of Il-1β levels in macrophages as determined by qPCR. ***P < 0.001. (j) Relative mRNA expression of Il-6 in macrophages as determined by qPCR. *P < 0.05. (k) Relative mRNA expression of Il-10 in macrophages as determined by qPCR. *P < 0.05. […]

EC50 [2]: > 10 µM
SMILES: CCS(=O)(=O)c1ccc(CC(=O)Nc2ccc(-c3ccc(CC(C)C)c(C#N)c3)c(C(F)(F)F)c2)cc1 [8-074]
percentage of CD8+ T cells that express IL-17A [1]: 50.4%

Reference: article PMC9034499, “RORγt agonist enhances anti-PD-1 therapy by promoting monocyte-derived dendritic cells through CXCL10 in cancers” (Journal of Experimental & Clinical Cancer Research : CR, 2022)
